From BigSolDB 2.1

CC1=C(C(=O)O)N2C(=O)[C@@H](NC(=O)[C@H](N)C3=CCC=CC3)[C@H]2SC1
solubility (mole fraction)
Conditions | 283.15 K | 285.15 K | 288.15 K | 291.15 K | 293.15 K | 298.15 K | 303.15 K | 308.15 K
in ethanol | 0.000187 | 0.000195 | 0.000217 | 0.000233 | 0.000249 | 0.000299 | 0.000368 | 0.000442
in methanol | 0.000575 | 0.00061 | 0.00065 | 0.000702 | 0.000738 | 0.000845 | 0.000955 | 0.00108
in n-butanol | 0.000265 | 0.000288 | 0.000335 | 0.000369 | 0.000405 | 0.000478 | 0.000567 | 0.000657
in n-propanol | 0.00019 | 0.000198 | 0.000214 | 0.000238 | 0.000253 | 0.000319 | 0.000381 | 0.000469
in water | 0.00114 | – | 0.00115 | – | 0.00116 | 0.00117 | 0.00118 | 0.0012
